Results as given in the supplement of paper PMC10307832.

Assays:
Assay in all cases: relative viability (nuclei count vs DMSO), 5 days (fraction); higher = more cells survive
Idelalisib + OSI-027 = compound: CC[C@H](Nc1ncnc2[nH]cnc12)c1nc2cccc(F)c2c(=O)n1-c1ccccc1 [Idelalisib] + COc1cccc2cc(-c3nc([C@H]4CC[C@H](C(=O)O)CC4)n4ncnc(N)c34)[nH]c12 [OSI-027] (partner 0.5 µM)
Procedure, shortened: (§1)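 Relative viability divides the nuclei count in treated wells by that in vehicle wells. Lung cancer cell lines were seeded in 1536-well plates, dosed by pin tool the next day, and fixed and stained after 5 days in one step with final 0.05% Triton X-100, 1% formaldehyde and 1 ug/ml Hoechst. Dosing was a single drug or a fixed anchor-drug dose plus five library-drug doses (not always all listed) in √10 steps, and values are medians of duplicate plates imaged at 4×.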

Idelalisib + Olaparib = compound: CC[C@H](Nc1ncnc2[nH]cnc12)c1nc2cccc(F)c2c(=O)n1-c1ccccc1 [Idelalisib] + O=C(c1cc(Cc2n[nH]c(=O)c3ccccc23)ccc1F)N1CCN(C(=O)C2CC2)CC1 [Olaparib] (partner 8 µM)
Procedure, shortened: as §1

Pemetrexed + Alpelisib = compound: Nc1nc2[nH]cc(CCc3ccc(C(=O)N[C@@H](CCC(=O)O)C(=O)O)cc3)c2c(=O)[nH]1 [Pemetrexed] + Cc1nc(NC(=O)N2CCC[C@H]2C(N)=O)sc1-c1ccnc(C(C)(C)C(F)(F)F)c1 [Alpelisib] (partner 2 µM)
Procedure, shortened: as §1

Pemetrexed + Olaparib = compound: Nc1nc2[nH]cc(CCc3ccc(C(=O)N[C@@H](CCC(=O)O)C(=O)O)cc3)c2c(=O)[nH]1 [Pemetrexed] + O=C(c1cc(Cc2n[nH]c(=O)c3ccccc23)ccc1F)N1CCN(C(=O)C2CC2)CC1 [Olaparib] (partner 8 µM)
Procedure, shortened: as §1

Cell Line | relative viability (Idelalisib + OSI-027; first compound 0.04 µM) | relative viability (Idelalisib + OSI-027; first compound 0.1265 µM) | relative viability (Idelalisib + OSI-027; first compound 0.4 µM) | relative viability (Idelalisib + OSI-027; first compound 1.265 µM) | relative viability (Idelalisib + OSI-027; first compound 4 µM) | relative viability (Idelalisib + Olaparib; first compound 0.04 µM) | relative viability (Idelalisib + Olaparib; first compound 0.1265 µM) | relative viability (Idelalisib + Olaparib; first compound 0.4 µM) | relative viability (Idelalisib + Olaparib; first compound 1.265 µM) | relative viability (Idelalisib + Olaparib; first compound 4 µM) | relative viability (Pemetrexed + Alpelisib; first compound 0.002 µM) | relative viability (Pemetrexed + Alpelisib; first compound 0.006325 µM) | relative viability (Pemetrexed + Alpelisib; first compound 0.02 µM) | relative viability (Pemetrexed + Alpelisib; first compound 0.06325 µM) | relative viability (Pemetrexed + Alpelisib; first compound 0.2 µM) | relative viability (Pemetrexed + Olaparib; first compound 0.002 µM) | relative viability (Pemetrexed + Olaparib; first compound 0.006325 µM) | relative viability (Pemetrexed + Olaparib; first compound 0.02 µM) | relative viability (Pemetrexed + Olaparib; first compound 0.06325 µM) | relative viability (Pemetrexed + Olaparib; first compound 0.2 µM)
LOU-NH91 | 0.776 | 0.732 | 0.687 | 0.517 | 0.708 | 0.986 | 0.936 | 0.856 | 0.848 | 0.912 | 0.711 | 0.757 | 0.745 | 0.632 | 0.529 | 0.864 | 0.886 | 0.93 | 0.819 | 0.455
LU99A | 0.302 | 0.322 | 0.242 | 0.298 | 0.305 | 0.251 | 0.25 | 0.274 | 0.206 | 0.241 | 0.517 | 0.556 | 0.492 | 0.498 | 0.346 | 0.246 | 0.245 | 0.302 | 0.28 | 0.244
LXF-289 | 0.879 | 0.782 | 0.632 | 0.813 | 0.764 | 1.13 | 1.07 | 1.02 | 1.06 | 1.04 | 1.04 | 1 | 1.07 | 1.05 | 0.969 | 1.07 | 1.04 | 1.1 | 1.03 | 0.976
NCI-H23 | 0.614 | 0.618 | 0.216 | – | 0.537 | 0.286 | 0.289 | 0.336 | 0.29 | 0.307 | 0.666 | 0.532 | 0.741 | 0.503 | 0.601 | 0.318 | 0.335 | 0.331 | 0.32 | 0.319
NCI-H322M | 0.612 | 0.546 | 0.463 | 0.539 | 0.511 | 0.652 | 0.813 | 0.781 | 0.747 | 0.77 | 0.814 | 0.724 | 0.813 | 0.776 | 0.773 | 0.682 | 0.763 | 0.752 | 0.84 | 0.736
NCI-H358 | 0.773 | 0.875 | 0.554 | 0.695 | 0.72 | 0.562 | 0.586 | 0.522 | 0.606 | 0.516 | 0.917 | 0.79 | 0.538 | 0.314 | 0.27 | 0.582 | 0.622 | 0.66 | 0.397 | 0.151
NCI-H441 | 0.788 | 0.561 | 0.397 | 0.526 | 0.616 | 0.532 | 0.582 | – | 0.618 | 0.55 | 0.667 | 0.686 | 0.932 | 0.531 | 0.53 | 0.458 | 0.534 | 0.56 | 0.567 | 0.252
NCI-H460 | 0.911 | 0.794 | 0.469 | 0.571 | 0.45 | 0.491 | 0.466 | 0.461 | 0.454 | 0.472 | 0.479 | 0.344 | 0.518 | 0.151 | 0.0576 | 0.237 | 0.35 | 0.484 | 0.437 | 0.116
NCI-H520 | 0.287 | 0.265 | 0.186 | 0.206 | 0.179 | 0.34 | 0.364 | 0.276 | 0.302 | 0.269 | 0.92 | 0.828 | 0.948 | 0.823 | 0.697 | 0.282 | 0.385 | 0.356 | 0.335 | 0.319
NCI-H596 | 0.859 | 0.746 | 0.666 | 0.65 | 0.551 | 0.662 | 0.667 | 0.707 | 0.647 | 0.675 | 0.409 | 0.485 | 0.593 | 0.39 | 0.374 | 0.747 | 0.73 | 0.761 | 0.668 | 0.514
NCI-H647 | 0.758 | 0.64 | – | 0.527 | 0.423 | 0.623 | 0.602 | 0.489 | 0.614 | 0.281 | – | 1.02 | 1.3 | 0.836 | 0.296 | 0.585 | 0.67 | 0.765 | 0.465 | 0.163
NCI-H650 | 0.491 | 0.574 | 0.446 | 0.527 | 0.506 | 0.414 | 0.441 | 0.362 | 0.334 | 0.37 | 1.17 | 0.999 | 1.11 | 0.956 | 1.09 | 0.382 | 0.403 | – | 0.302 | 0.378
NCI-H661 | 0.705 | 0.838 | 0.607 | 0.661 | 0.706 | 0.821 | 0.783 | 0.738 | 0.888 | 0.764 | 0.732 | 0.563 | 0.621 | 0.636 | 0.794 | 0.741 | 0.743 | 0.71 | 0.759 | 0.679
NCI-H727 | 0.749 | 0.708 | 0.45 | 0.562 | 0.52 | 0.813 | 0.624 | 0.688 | 0.779 | 0.836 | 0.577 | 0.534 | 0.596 | 0.678 | 0.594 | 0.617 | 0.654 | 0.692 | 0.795 | 0.689
NCI-H838 | 0.416 | 0.346 | 0.271 | 0.453 | 0.317 | 0.779 | 0.794 | 0.745 | 0.775 | 0.564 | 0.989 | 0.878 | 1.14 | 0.934 | 0.372 | 0.755 | 0.75 | 0.837 | 0.471 | 0.216
NCI-H1355 | 0.401 | 0.476 | 0.273 | 0.401 | 0.366 | 0.78 | 0.694 | 0.632 | 0.776 | 0.673 | 0.805 | 0.768 | 0.822 | 0.843 | 0.858 | 0.676 | 0.709 | 0.731 | 0.754 | 0.691
